According to article PMC10952572, “Improved PIEZO1 agonism through 4‐benzoic acid modification of Yoda1” (British Journal of Pharmacology, 2023):

What was measured:
mPIEZO1 [1] = molecular target: T1, mPIEZO1 (Mus musculus, UniProt E2JF22); assay: Intracellular Ca2+ measurement (Fura-2) in mPIEZO1-TREx cells; format: cell-based; conditions: for Peak ΔCa2+i (ΔF340/380), median fold difference compared to Yoda1: 10 μM compound, mPIEZO1-TREx cells, paired with 10 μM Yoda1; for Ca2+ response (agonist effect): 10 μM, cells overexpressing mPIEZO1, compared with Yoda1
T1 construct: expressed in transfected cells
Description: HEK T‐REx™ cells that constitutively overexpress murine PIEZO1 were generated as previously described (Blythe et al., [2019]). pcDNA3 mouse PIEZO1 (mPIEZO1) IRES green fluorescent protein (GFP), a gift from Ardem Patapoutian (Coste et al., [2010]), was used as a template to clone the mPIEZO1 coding sequence into pcDNA4/TO. Overlapping mPIEZO1 (forward primer 5′‐[…]‐3′ and reverse primer 5′‐[…]‐3′) and pcDNA4/TO (forward primer 5′‐[…]‐3′ and reverse primer 5′‐[…]‐3′) PCR products were assembled using Gibson Assembly (New England Biolabs). […] HEK T‐REx™ 293 cells were transfected with pcDNA4/TO‐mPIEZO1 using Lipofectamine 2000 (Invitrogen) and treated with 200 μg·ml^−1 zeocin to select stably transfected cells. Individual clones were isolated and analysed for expression using Yoda1 and intracellular Ca^2+ measurements. These cells are referred to as mPIEZO1‐TREx.
(§1) HEK 293‐TREx cells and their stably transfected derivatives or transiently transfected HEK 293 or HeLa cells were seeded at a density of 7.5 × 10^4 cells per well into poly‐D‐lysine‐coated 96‐well plates. The plates were either commercially pre‐coated with poly‐D‐lysine (Greiner Bio‐One #655946) or (Greiner Bio‐One #655090) were coated in‐house with 35 μl of a 10 μg·ml^−1 poly‐D‐lysine (Bio‐Techne, Cultrex # 3439‐100‐01) in sterile deionised water per well for at least 24 h and rinsed three times with 100 μl per well sterile D‐PBS before addition of cells. HUVECs were seeded into tissue culture‐treated 96‐well plates (Greiner Bio‐One #655090) at a density of either 2.5 × 10^4 cells 24 h before experimentation or 1.25 × 10^4 cells 48 h before experimentation. Cells were incubated with 2 μM Fura‐2‐AM (Molecular Probes™) in the presence of 0.01% (wt./vol.) pluronic F127 (Sigma‐Aldrich #P2443) in standard bath solution (SBS) for 1 h at 37°C. Cells were washed with SBS for 30 min at room temperature. Alternatively, if inhibitors were being tested, these were added at this time, immediately following a wash in SBS. (−)‐Englerin A (Akbulut et al., [2015]) was used in SBS containing 0.01% pluronic acid as a dispersing agent to minimise aggregation of compound. Unless otherwise stated, the final concentration of DMSO was 0.2% (vol./vol). Working 2000× stock solutions of test compounds were freshly made in DMSO and diluted 1000‐fold in SBS during the 30 min SBS wash/inhibitor pre‐incubation period to obtain 2× solutions for injection. When testing the highest concentration of Yoda1, KC159 and KC289 (30 μM), the final DMSO concentration was 0.6% (vol./vol.). Measurements were made at room temperature on a 96‐well fluorescence plate reader (FlexStation 3, Molecular Devices, Sunnyvale, CA, USA) controlled by SoftMax Pro software v7.0.3. Recipient wells containing 80 μl SBS/0.2% (vol./vol.) DMSO vehicle or inhibitor compound received 80 μl 2× compound at an injection rate of 1 μl·s^−1, and the pipette introduced liquids from a height setting of 70 μl. No trituration was performed. For recordings using Fura‐2, the change in intracellular Ca was indicated as the ratio of Fura‐2 emission (510 nm) intensities at 340 and 380 nm excitation. Photomultipliers were set to medium sensitivity. SBS contained 130 mM NaCl, 5 mM KCl, 8 mM D‐glucose, 10 mM HEPES, 1.2 mM MgCl2 and 1.5 mM CaCl2, and the pH was adjusted to 7.4 with NaOH. The solution was filtered through a 0.2 μm bottle‐top filter prior to use and handled aseptically thereafter.
For intracellular Ca^2+ (Ca^2+i) measurements, technical intra‐experiment replicates were used to improve confidence in the data. Analysis of individual experiments was performed to obtain mean ± SEM values. For collated analysis of independent experiments, where normal distributions were not evidenced by Shapiro–Wilk normality tests, non‐parametric distributions were assumed, and therefore, median values were used. […]

hPIEZO1 [2] = molecular target: T2, hPIEZO1 (Homo sapiens, UniProt Q92508); assay: Pre-treatment with analogue before Yoda1 stimulus, Ca2+ assay in hPIEZO1-TREx cells; format: cell-based; conditions: for 2 μM Yoda1-evoked peak ΔCa2+i (ΔF340/380), median fold difference compared to DMSO pretreatment: hPIEZO1-TREx, 10 μM compound 30 min pretreatment before 2 μM Yoda1; for Inhibition of the action of Yoda1: hPIEZO1 channels, 10 μM for 30 min prior to Yoda1
T2 construct: expressed in transfected cells
Experimental: as §1
In view of the effect of Dooku1 described above, we tested if there are inhibitory actions of the new Yoda1 analogues by pre‐treating cells at 10 μM for 30 min prior to adding 2 μM Yoda1 (Figures 9 and S9, SI 1). All except KC157 and KC161 inhibited the action of Yoda1 on hPIEZO1 channels (Figures 9a and S9, SI 1). […] KC159 and KC289 were agonists, and so they may inhibit the effect of Yoda1 simply by pre‐activating the channels. KC158, KC161 and KC162 are also agonists of mPIEZO1 channels (Figure 3). […] Only the 2‐benzoic acid analogue (KC157) lacks agonist or antagonist properties.

mPIEZO1 [3] = molecular target: T1, mPIEZO1; assay: Pre-treatment with analogue before Yoda1 stimulus, Ca2+ assay in mPIEZO1-TREx cells; format: cell-based; conditions: mPIEZO1-TREx, 10 μM compound 30 min pretreatment before 0.5 μM Yoda1
hPIEZO1 [4] = molecular target: T2, hPIEZO1; assay: Intracellular Ca2+ measurement (Fura-2) in hPIEZO1-TREx cells; format: cell-based; conditions: 10 μM compound, hPIEZO1-TREx cells, paired with 10 μM Yoda1
Description: HEK T‐REx™ 293 cells (Thermo Fisher Cat #R71007, RRID:CVCL_D585) that overexpress hPIEZO1 upon induction with tetracycline were generated as previously described (Rode et al., [2017]). PIEZO1‐GFP was used as a PCR template to clone hPIEZO1 coding sequence into pcDNA™4/TO between HindIII and EcoRI restriction sites. PIEZO1 was amplified as two fragments using the following primers: (HindIII‐PIEZO1‐Fw: […] and BamHI‐Int.PIEZO1‐Rv: […]) and (BamHI‐Int. PIEZO1‐Fw: […] and EcoRI‐PIEZO1‐Rv: […]). The two fragments were fused using BamHI restriction site, resulting in the full‐length PIEZO1 coding sequence with the c4182a silent mutation. HEK T‐REx™ 293 cells (Invitrogen) were transfected with pcDNA4/TO‐PIEZO1 using Lipofectamine 2000 (Thermo Fisher Scientific). Subsequently, cells were treated with 10 μg·ml^−1 blasticidin and 200 μg·ml^−1 zeocin (InvivoGen) to select stably transfected cells. Single‐cell clones were isolated and analysed individually. Expression was induced by treating the cells for 24 h with 10 ng·ml^−1 tetracycline and analysed by quantitative RT‐PCR and Western blot. These cells are referred to as hPIEZO1‐TREx.
as §1
For intracellular Ca^2+ (Ca^2+i) measurements, technical intra‐experiment replicates were used to improve confidence in the data. Analysis of individual experiments was performed to obtain mean ± SEM values. […]

mouse portal vein = assay: Wire myography, relaxation of phenylephrine pre-constricted vein
Experimental: Mice were anaesthetised with isoflurane (5% induction and 1.5% maintenance) in 95% O2 according to Schedule 1 procedure approved by the UK Home Office. The portal vein was quickly dissected and placed in Krebs solution. The Krebs PV solution consisted of 118 mM NaCl, 4.7 mM KCl, 2.5 mM CaCl2, 1.2 mM KH2PO4, 1.2 mM MgSO4·7H2O, 25.2 mM NaHCO3 and 11.1 mM glucose. By means of a dissecting microscope, adhering perivascular tissue was carefully removed and the vein was cut into 1 mm segments.
Vein segments were mounted onto two thin stainless steel wires in an isometric myograph (Multi Wire Myograph System 620M from Danish Myograph Technology [DMT]), for which the force transducer was calibrated once per month according to the manufacturer's instructions. The recording chamber was filled with gassed Krebs solution (95% O2/5% CO2, pH 7.4). The segments were then stretched to a normalised internal diameter according to the manufacturer's instructions. The mounted rings were kept in a 5 ml chamber containing Krebs solution at 37°C and continuously bubbled with a gas mixture of 95% O2 and 5% CO2 (pH 7.4). After an equilibration period of 60 min, the contractile function of the vessel was tested by replacing the Krebs solution by 60 mM K^+ solution. Following washout, the vein was contracted once with 10 μM phenylephrine and then Yoda1, KC159 or KC289 was applied with the concentrations of 0.1 to 10 μM. The NOS inhibitor, L‐NAME, (100 μM), was pre‐incubated for 20 min before the PIEZO1 modulator.
Because the anticipated effect of test compounds was to cause vessel relaxation, phenylephrine was applied to induce tension and the maximum value of this tension was defined as 0% relaxation (no relaxation). The value of tension immediately prior to application of phenylephrine was defined as 100% relaxation. Data are normalised to these values because, otherwise, the intrinsic variability in the absolute amount of tension induced by phenylephrine obscured exploration of the relaxant effect of compounds.
OriginPro 2020 was used for the analysis of myography data. Myography traces show readings taken every 0.5 or 1 s and were smoothed with the Savitzky–Golay filter set to 70 points. To compare the agonistic activity of Yoda1 analogues, basal vessel tension prior to compound injection was subtracted. Maximal tension in the presence of PE alone was used to define 0% relaxation. The tension value prior to PE application was defined as 100% relaxation. Following the addition of test compounds, tension readings were taken at the last time point of the treatments and expressed as percentage relaxation.

T2 sequence (Q92508 whole entry): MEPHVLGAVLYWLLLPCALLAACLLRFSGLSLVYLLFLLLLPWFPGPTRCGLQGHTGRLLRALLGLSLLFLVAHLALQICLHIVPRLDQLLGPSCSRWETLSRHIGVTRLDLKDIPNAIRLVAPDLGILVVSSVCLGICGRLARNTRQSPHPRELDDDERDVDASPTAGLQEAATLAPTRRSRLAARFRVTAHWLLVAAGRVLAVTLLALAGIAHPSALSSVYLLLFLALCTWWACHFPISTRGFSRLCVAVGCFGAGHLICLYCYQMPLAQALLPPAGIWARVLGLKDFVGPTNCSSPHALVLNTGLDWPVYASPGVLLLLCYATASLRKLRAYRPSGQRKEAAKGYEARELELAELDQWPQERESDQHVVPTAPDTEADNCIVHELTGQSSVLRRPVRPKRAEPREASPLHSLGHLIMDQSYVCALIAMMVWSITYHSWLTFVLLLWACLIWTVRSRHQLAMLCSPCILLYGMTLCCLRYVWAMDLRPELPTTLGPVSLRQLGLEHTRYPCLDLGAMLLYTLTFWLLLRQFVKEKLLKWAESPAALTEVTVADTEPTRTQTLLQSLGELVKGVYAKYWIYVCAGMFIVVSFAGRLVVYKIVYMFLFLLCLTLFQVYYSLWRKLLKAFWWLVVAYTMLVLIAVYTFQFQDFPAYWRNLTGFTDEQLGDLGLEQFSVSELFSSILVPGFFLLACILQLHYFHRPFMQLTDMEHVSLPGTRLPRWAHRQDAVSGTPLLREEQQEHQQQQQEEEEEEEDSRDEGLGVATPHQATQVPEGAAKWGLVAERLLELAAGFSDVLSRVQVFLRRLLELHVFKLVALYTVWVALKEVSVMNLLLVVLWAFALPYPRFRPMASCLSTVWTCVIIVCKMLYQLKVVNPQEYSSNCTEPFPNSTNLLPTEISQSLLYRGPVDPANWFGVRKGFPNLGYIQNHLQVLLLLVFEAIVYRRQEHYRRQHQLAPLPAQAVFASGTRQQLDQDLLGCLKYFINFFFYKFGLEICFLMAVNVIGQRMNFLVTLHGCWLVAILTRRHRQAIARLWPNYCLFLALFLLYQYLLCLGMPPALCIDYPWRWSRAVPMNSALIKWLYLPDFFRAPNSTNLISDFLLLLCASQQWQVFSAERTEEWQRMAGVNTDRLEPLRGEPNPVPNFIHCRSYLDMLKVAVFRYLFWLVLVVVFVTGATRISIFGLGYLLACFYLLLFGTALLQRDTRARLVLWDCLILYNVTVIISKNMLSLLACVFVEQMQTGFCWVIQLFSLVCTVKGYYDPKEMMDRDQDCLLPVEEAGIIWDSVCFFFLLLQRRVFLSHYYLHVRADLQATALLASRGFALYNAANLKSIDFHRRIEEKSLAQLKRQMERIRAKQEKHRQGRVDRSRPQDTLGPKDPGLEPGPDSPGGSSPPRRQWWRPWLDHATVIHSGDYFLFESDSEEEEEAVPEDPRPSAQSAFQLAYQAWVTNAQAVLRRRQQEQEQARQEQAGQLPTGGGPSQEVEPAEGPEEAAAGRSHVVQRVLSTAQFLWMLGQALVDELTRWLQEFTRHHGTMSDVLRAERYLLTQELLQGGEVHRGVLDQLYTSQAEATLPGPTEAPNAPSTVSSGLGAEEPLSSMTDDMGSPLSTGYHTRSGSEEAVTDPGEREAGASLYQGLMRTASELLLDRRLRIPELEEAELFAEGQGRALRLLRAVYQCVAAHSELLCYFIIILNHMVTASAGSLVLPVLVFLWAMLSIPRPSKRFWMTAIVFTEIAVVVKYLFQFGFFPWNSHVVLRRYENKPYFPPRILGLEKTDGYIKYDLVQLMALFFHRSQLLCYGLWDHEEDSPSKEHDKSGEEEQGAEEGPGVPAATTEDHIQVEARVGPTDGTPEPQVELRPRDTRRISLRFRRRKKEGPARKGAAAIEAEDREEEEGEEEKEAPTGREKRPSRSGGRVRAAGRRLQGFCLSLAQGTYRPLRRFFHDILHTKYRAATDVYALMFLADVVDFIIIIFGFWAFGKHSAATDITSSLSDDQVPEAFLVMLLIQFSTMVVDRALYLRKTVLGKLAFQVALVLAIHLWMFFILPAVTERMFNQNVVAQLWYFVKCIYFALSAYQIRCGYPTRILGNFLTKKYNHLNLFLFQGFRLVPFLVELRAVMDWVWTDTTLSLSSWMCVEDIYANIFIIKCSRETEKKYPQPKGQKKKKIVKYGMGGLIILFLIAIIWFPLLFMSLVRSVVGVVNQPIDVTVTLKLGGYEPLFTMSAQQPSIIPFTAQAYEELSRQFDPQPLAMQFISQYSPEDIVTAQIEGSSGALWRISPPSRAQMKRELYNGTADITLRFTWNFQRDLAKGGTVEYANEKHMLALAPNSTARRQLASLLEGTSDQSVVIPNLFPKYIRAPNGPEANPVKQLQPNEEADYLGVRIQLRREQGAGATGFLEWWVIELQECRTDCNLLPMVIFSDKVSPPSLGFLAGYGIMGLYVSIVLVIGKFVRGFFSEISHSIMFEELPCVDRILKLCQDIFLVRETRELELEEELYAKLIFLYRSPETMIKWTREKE
T1 sequence (E2JF22 whole entry): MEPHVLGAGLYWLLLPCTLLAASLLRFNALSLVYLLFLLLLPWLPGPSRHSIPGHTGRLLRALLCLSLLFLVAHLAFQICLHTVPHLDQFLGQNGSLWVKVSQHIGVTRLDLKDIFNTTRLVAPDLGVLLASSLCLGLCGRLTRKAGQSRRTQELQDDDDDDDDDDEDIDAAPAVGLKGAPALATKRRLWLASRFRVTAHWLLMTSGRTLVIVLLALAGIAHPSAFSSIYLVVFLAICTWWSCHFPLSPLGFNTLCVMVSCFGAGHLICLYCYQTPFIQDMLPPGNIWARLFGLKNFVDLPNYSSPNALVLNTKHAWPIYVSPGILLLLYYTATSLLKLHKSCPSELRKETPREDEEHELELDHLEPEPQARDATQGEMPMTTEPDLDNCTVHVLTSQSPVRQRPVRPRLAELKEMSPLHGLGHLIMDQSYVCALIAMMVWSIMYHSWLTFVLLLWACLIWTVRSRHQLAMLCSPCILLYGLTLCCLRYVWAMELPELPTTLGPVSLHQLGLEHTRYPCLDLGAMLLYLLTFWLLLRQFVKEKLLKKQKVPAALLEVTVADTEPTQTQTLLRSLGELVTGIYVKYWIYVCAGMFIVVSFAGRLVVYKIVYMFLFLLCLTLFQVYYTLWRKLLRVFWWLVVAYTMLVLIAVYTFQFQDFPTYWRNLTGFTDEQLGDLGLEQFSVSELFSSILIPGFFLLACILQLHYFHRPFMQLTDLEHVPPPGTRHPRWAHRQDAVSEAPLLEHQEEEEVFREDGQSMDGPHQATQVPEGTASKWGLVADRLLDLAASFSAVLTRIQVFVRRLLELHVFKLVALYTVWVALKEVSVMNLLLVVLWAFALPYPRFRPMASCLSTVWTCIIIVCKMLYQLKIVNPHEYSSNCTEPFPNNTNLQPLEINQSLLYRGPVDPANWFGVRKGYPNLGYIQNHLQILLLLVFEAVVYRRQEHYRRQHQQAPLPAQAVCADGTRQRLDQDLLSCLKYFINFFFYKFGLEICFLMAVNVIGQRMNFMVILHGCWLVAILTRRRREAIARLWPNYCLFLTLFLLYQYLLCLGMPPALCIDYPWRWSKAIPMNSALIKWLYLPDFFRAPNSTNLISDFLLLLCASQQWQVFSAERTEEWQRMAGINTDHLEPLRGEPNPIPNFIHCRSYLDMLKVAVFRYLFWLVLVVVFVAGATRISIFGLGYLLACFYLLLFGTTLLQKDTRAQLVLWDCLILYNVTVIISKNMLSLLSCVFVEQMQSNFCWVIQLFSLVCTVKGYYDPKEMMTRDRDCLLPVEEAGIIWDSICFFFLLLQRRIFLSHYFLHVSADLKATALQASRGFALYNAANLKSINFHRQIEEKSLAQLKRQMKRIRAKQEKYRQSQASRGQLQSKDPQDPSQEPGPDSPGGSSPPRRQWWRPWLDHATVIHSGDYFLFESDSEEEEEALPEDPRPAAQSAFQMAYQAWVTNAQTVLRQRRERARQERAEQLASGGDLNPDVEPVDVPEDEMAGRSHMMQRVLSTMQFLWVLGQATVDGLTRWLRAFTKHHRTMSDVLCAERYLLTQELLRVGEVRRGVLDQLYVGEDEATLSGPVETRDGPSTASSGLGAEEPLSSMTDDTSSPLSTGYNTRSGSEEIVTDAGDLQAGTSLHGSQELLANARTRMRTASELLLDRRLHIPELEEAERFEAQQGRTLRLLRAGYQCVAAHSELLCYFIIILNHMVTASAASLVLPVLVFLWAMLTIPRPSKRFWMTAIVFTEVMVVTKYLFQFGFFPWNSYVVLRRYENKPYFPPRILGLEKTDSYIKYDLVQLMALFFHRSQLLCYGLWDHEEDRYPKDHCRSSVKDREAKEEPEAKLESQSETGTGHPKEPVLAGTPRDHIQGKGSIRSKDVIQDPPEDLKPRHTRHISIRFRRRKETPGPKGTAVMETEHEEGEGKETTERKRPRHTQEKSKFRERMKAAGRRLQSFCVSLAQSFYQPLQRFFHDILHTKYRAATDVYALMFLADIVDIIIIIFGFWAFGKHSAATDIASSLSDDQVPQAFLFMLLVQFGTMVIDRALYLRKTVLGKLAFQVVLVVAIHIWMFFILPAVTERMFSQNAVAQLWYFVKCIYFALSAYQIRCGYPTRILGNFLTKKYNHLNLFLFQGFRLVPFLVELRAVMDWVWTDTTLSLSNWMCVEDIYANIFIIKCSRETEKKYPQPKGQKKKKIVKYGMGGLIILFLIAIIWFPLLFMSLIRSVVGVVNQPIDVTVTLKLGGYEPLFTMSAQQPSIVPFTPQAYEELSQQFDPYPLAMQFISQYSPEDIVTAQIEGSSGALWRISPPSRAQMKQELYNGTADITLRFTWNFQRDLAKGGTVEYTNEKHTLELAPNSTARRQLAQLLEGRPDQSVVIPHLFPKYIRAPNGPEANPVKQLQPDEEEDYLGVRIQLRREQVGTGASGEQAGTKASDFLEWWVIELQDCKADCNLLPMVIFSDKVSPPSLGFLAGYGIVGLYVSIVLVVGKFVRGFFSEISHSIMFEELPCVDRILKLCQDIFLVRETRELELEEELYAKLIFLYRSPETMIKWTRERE

| Peak ΔCa2+i (ΔF340/380), median fold difference compared to Yoda1 (mPIEZO1 [1]) [fold] | Ca2+ response (agonist effect) (mPIEZO1 [1]) | 2 μM Yoda1-evoked peak ΔCa2+i (ΔF340/380), median fold difference compared to DMSO pretreatment (hPIEZO1 [2]) [fold] | Inhibition of the action of Yoda1 (hPIEZO1 [2]) | 0.5 μM Yoda1-evoked peak ΔCa2+i (ΔF340/380), median fold difference compared to DMSO pretreatment (mPIEZO1 [3]) [fold] | Peak ΔCa2+i (ΔF340/380), median fold difference compared to Yoda1 (hPIEZO1 [4]) [fold] | Structure (SMILES) | Effect on responses to phenylephrine (mouse portal vein; 10 μM Dooku1) | Effect of pre-incubation on relaxations evoked by PIEZO1 agonists (mouse portal vein; 10 μM Dooku1 pre-incubation, 30 min) |
| --- | --- | --- | --- | --- | --- | --- | --- | --- |
| −2.0 | agonist effects | −3.8 | inhibit the Yoda1 response | −4.9 | −11.7 | O=C(O)c1cccc(-c2nnc(SCc3c(Cl)cccc3Cl)s2)c1 [KC158] | – | – |
| −3.7 | agonist effects | −2.5 | inhibit the Yoda1 response | −8.2 | −3.7 | NC(=O)c1cccc(-c2nnc(SCc3c(Cl)cccc3Cl)s2)c1 [KC162] | – | – |
| −3.8 | agonist effects | – | – | −6.5 | −23.6 | NC(=O)c1ccc(-c2nnc(SCc3c(Cl)cccc3Cl)s2)cc1 [KC161] | – | – |
| – | – | – | – | – | – | Clc1cccc(Cl)c1CSc1nnc(-c2ccc[nH]2)o1 [Dooku1, reference compound] | consistently inhibited responses to phenylephrine | reduces relaxations evoked by KC159 and KC289 |
